# Like-named read-outs stand apart in the source and are kept apart here.
# Experiments:
# [1] = target: T1, CYP2B6 (Homo sapiens, UniProt P20813); assay: CYP inhibition in human liver microsomes; details: human, human liver microsomes, probe bupropion
# T1 sequence (P20813 1-491): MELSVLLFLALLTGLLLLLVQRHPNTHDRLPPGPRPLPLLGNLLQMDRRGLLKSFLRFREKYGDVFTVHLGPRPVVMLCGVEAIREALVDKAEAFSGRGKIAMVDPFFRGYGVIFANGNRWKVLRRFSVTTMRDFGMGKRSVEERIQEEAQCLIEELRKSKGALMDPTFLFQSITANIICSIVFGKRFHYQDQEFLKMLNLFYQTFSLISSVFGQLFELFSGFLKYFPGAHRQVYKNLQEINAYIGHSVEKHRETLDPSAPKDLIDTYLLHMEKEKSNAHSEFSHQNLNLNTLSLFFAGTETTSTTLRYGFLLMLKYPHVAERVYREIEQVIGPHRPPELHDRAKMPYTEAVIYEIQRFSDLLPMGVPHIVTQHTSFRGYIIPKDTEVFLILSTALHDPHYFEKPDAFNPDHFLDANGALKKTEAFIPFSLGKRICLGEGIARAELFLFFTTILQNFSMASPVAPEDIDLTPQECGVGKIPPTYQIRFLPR
# [2] = target: T2, CYP2C8 (Homo sapiens, UniProt P10632); assay: CYP inhibition in human liver microsomes; details: human, human liver microsomes, probe paclitaxel
# T2 sequence (P10632 1-490): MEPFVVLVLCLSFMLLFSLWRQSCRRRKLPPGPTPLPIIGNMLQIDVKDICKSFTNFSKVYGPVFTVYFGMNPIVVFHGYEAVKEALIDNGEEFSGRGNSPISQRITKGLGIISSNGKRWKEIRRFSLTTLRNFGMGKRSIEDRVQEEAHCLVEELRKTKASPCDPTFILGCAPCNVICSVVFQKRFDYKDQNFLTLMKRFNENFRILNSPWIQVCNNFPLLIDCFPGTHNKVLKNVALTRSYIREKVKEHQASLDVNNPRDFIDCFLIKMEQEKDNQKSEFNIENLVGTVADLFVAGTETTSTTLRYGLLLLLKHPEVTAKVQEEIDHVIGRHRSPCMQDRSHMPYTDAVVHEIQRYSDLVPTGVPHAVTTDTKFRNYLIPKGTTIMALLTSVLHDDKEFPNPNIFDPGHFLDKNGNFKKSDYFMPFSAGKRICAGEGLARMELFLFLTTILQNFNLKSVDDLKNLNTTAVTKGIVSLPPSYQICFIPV
# [3] = target: CYP2C19 (Homo sapiens, UniProt P33261); assay: CYP inhibition in human liver microsomes; details: human, human liver microsomes, probe mephenytoin
# Chain of CYP2C19 (P33261 whole entry): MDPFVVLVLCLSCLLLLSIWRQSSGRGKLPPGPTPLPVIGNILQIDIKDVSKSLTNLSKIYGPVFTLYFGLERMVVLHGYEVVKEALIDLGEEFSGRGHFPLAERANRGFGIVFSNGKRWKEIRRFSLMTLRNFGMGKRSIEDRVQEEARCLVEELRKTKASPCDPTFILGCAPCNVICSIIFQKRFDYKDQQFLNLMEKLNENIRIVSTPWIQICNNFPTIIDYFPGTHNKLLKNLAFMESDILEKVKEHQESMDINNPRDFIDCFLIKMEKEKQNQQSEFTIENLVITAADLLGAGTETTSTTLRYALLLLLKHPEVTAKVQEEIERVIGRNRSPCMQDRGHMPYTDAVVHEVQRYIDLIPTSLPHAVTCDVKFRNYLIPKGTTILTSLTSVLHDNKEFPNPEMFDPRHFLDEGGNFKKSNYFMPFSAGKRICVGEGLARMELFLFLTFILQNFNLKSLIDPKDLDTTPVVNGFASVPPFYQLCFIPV
# [4] = target: CYP2C9 (Homo sapiens, UniProt P11712); assay: CYP inhibition in human liver microsomes; details: human
# Chain of CYP2C9 (P11712 whole entry): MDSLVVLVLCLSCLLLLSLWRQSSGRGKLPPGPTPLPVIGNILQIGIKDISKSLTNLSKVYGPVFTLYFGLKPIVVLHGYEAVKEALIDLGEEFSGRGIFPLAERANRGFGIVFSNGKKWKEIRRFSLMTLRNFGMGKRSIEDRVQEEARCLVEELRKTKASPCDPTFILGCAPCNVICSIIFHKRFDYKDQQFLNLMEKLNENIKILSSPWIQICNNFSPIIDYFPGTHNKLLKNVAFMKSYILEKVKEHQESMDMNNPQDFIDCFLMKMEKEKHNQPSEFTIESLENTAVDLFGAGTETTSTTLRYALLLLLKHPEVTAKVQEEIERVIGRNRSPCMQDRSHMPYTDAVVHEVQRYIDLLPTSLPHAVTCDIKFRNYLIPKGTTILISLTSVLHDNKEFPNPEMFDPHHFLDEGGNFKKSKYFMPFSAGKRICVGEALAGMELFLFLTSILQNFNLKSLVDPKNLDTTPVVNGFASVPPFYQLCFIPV
# [5] = target: T3, CYP1A2 (Homo sapiens, UniProt P05177); assay: CYP inhibition in human liver microsomes; details: human, human liver microsomes, probe phenacetin
# T3 sequence (P05177 1-516): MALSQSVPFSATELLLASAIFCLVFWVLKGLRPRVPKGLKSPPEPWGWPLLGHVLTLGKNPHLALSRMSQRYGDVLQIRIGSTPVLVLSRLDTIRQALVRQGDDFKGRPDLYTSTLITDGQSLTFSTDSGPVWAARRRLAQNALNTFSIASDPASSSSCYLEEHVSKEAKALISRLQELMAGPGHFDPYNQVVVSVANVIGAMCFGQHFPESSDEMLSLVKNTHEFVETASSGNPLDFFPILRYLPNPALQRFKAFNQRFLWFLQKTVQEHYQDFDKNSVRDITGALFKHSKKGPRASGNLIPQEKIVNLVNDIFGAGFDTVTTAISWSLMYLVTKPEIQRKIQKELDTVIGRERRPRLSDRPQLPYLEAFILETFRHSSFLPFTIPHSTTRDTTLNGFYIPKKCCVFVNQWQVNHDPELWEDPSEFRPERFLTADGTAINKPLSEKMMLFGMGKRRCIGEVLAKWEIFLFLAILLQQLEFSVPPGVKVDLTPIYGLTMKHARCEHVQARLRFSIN
# [6] = system: CYP2B6; assay: CYP induction, mRNA, primary cultured human hepatocytes; details: Fold Induction (CYP2B6 mRNA expression), hepatocyte Lot 399, 1000 µM
# From the text: (§1) Rifampicin as a positive control and solvent (0.1% DMSO) vehicle control were also included. The acceptance criteria for CYP induction was ≥ 2-fold induction for significant CYP activity, while the acceptance criteria for CYP mRNA was ≥ 4-fold for significant CYP induction.
# [7] = system: CYP2B6 mRNA; assay: as above; details: Fold Induction (CYP2B6 mRNA expression)
# From the text: as §1
# [8] = system: CYP2B6; assay: CYP induction, in situ catalytic activity, human hepatocytes
# From the text: as §1
# [9] = system: HepG2 cells; assay: Phospholipidosis and steatosis, high content screening; type: cell-based; design: key to Cell count, Trend (↑↓) / Nuclear size, Trend (↑↓) / DNA structure, Trend (↑↓) / Phospholipidosis, Trend (↑↓) / Steatosis, Trend (↑↓): ↑: increasing trend of response; ↓: decreasing trend of response; details: for Steatosis, MEC: (NS) = not statistically significant
# [10] = as above; type: cell-based; design: key to Cell count, Trend (↑↓) / Nuclear size, Trend (↑↓) / DNA structure, Trend (↑↓) / Phospholipidosis, Trend (↑↓) / Steatosis, Trend (↑↓): ↑: increasing trend of response; ↓: decreasing trend of response; details: human, HepG2 cells
# [11] = target: CYP2D6 (Homo sapiens, UniProt P10635); assay: CYP inhibition in human liver microsomes; details: human, human liver microsomes, probe bufuralol
# Chain of CYP2D6 (P10635 whole entry): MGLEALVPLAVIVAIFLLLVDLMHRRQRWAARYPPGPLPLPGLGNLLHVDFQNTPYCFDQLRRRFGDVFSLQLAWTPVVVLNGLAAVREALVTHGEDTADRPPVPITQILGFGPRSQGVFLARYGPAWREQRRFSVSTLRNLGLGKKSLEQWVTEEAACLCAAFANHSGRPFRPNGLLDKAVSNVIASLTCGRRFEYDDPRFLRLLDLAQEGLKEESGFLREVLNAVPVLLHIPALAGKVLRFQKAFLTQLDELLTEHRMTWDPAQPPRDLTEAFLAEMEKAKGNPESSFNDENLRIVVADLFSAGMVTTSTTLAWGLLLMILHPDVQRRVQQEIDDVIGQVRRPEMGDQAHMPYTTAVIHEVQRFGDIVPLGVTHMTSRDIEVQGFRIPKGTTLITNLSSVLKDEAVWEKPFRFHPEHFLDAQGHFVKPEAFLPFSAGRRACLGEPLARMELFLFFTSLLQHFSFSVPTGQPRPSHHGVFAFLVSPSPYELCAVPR
# [12] = target: CYP3A4 (Homo sapiens, UniProt P08684); assay: in vitro; details: microsomes
# Chain of CYP3A4 (P08684 2-503): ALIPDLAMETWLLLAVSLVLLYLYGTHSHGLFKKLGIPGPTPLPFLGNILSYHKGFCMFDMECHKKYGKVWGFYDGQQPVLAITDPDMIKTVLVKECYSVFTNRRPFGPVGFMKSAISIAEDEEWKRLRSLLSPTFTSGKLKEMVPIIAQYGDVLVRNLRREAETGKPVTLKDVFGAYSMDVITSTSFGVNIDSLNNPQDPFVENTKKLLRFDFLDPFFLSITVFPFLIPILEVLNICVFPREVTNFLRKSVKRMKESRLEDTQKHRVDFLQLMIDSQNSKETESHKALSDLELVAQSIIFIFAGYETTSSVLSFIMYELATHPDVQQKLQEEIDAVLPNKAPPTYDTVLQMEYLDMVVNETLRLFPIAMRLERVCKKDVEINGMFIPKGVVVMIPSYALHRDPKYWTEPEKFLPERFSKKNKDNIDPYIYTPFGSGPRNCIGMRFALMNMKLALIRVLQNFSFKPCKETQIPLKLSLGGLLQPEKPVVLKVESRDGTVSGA
# [13] = system: human hepatocytes; assay: MTT assay, hepatocyte viability; type: cell-based
# [14] = target: T4, P-gp (Homo sapiens, UniProt P08183); assay: Transporter mediated assay (substrate/inhibitor), MDCK-II cells; type: in vitro ADME; details: human, probe quinidine 0.1 μM
# T4 construct: expressed in transfected cells; host or cells: MDCK-II cells
# T4 sequence (P08183 whole entry): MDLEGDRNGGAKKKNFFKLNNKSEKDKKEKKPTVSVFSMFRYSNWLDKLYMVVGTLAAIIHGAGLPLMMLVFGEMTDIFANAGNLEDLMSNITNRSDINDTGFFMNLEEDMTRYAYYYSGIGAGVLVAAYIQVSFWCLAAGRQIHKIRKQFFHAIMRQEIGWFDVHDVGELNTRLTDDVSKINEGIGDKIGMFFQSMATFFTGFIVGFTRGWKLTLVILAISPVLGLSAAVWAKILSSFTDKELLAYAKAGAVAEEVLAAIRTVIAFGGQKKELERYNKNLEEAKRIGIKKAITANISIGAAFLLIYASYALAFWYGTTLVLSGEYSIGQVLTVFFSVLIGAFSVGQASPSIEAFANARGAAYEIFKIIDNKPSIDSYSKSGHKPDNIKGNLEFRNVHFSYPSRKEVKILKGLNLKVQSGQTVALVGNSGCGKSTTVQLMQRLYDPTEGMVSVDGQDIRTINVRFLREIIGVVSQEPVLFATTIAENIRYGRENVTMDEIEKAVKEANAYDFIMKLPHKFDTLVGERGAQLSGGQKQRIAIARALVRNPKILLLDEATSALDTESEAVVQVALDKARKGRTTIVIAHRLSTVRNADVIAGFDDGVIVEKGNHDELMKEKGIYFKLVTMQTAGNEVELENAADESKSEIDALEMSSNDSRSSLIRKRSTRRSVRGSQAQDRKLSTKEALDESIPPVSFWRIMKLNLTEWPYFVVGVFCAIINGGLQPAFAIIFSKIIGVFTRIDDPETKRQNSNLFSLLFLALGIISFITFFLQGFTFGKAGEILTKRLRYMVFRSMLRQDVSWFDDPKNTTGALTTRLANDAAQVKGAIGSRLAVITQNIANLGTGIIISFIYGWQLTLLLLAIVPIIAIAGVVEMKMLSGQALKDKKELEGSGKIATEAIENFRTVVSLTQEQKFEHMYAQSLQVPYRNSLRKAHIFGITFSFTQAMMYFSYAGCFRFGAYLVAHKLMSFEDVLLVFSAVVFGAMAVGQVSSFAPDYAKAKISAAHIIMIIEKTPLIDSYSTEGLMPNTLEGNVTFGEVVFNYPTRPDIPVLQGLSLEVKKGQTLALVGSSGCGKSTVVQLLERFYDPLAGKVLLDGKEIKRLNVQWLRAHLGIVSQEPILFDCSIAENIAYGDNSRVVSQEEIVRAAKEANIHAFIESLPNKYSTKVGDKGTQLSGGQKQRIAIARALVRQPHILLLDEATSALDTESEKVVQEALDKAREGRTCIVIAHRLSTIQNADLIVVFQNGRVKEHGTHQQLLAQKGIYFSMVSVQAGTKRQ
# Protocol: The MDCK-II cells were treated to express the transporter of interest.
# For BCRP and P-gp, the apparent permeability Papp and Efflux Ratio (ER) were calculated [16]. Net basal (B) to apical (A) flux (B → A) of the substrate transport (pmol/min/cm^2) by BCRP or P-gp was calculated by subtracting A → B flux from B → A flux.
# [15] = system: HepG2 cells; assay: Mitochondrial toxicity (MT) assay panel; type: cell-based; details: HepG2, 100 µM
# Protocol: The assay results were presented as % cell viability. […] After each incubation, the cells were harvested and lysed to test the MT assay panel. The Zalcitabine (positive control) was also included in this assay (Fig 3 in S1 File). The levels of Mitochondrial Oxidative Phosphorylation (OXPHOS) complex 1 (NADH dehydrogenase; ab178011, lot #GR 3339973–1), complex 3 (CytC reductase; ab124537, lot #GR3276896-3), complex 4 (CytC Oxidase; ab179880, lot #GR3273194-1), and complex 5 (ATP synthase; ab124539, lot #GR3267780-4) in the cell lysates were determined using respective indirect ELISA as per manufacturer’s instructions. The total ATP content of the cell lysates was determined using an ATP assay kit (ab83355, lot #GR3314128-2, Abcam, Cambridge, MA). The Caspase 3 content of the cell lysates was determined using the Caspase-3 assay kit (ab39401, lot #GR3322733-1, Abcam, Cambridge, MA). In addition, the total glutathione content was determined using the total glutathione (GSSG/GSH) assay kit (STA-312, lot #09100263, Oxiselect™, San Diego, CA). Using an Oxiselect™ ROS/RNS assay kit (STA-347, lot #7081343, Cell Biolabs Inc. San Diego, CA), the ROS/RNS content of the cell lysates was determined by fluorescence assay.
# [16] = # AC50 greater than the maximum surviving concentration, (NS) = not statistically significant, read-out: Steatosis, AC50
# [17] = read-out: Phospholipidosis, AC50
structure (smiles),measurement,setting,value
CC(=O)N1CCN(c2ccc(OCC3COC(Cn4ccnc4)(c4ccc(Cl)cc4Cl)O3)cc2)CC1 (stereo not drawn) [Ketoconazole],"activity at 20 min, 5 µM",[1],49.1 ± 0.7%
same,"activity at 20 min, 5 µM",[2],45.7 ± 4.7%
same,"activity at 20 min, 5 µM",[3],82.9 ± 2.8%
same,"activity at 20 min, 5 µM","[4]; human liver microsomes, probe diclofenac",65.8 ± 1.9%
same,"activity at 20 min, 5 µM",[5],70.7 ± 2.2%
CCC1(c2ccccc2)C(=O)NC(=O)NC1=O [Phenobarbital],"fold induction at 48 h, 1000 µM",[6],11
same,"fold induction at 48 h, 1000 µM","[7]; hepatocyte Lot 336, 1000 µM",11
same,"fold induction at 48 h, 1000 µM","[7]; hepatocyte Lot 348B, 1000 µM",12
same,Bupropion Hydroxylation,"[8]; hepatocyte Lot 336, 1000 µM",3.6 pmol/min/106 cells
same,"Fold of Vehicle Control (CYP2B6 activity, bupropion hydroxylation)","[8]; hepatocyte Lot 336, 1000 µM",4.0 fold
same,"Fold of Vehicle Control (CYP2B6 activity, bupropion hydroxylation)","[8]; hepatocyte Lot 348B, 1000 µM",8.6 fold
same,"Fold of Vehicle Control (CYP2B6 activity, bupropion hydroxylation)","[8]; hepatocyte Lot 399, 1000 µM",19 fold
CN[C@H]1CC[C@@H](c2ccc(Cl)c(Cl)c2)c2ccccc21 [Sertraline],"Cell count, MEC",[9],1.61 µM
same,"Cell count, Trend (↑↓)",[9],↓
same,"DNA structure, MEC",[9],0.876 µM
same,"DNA structure, Trend (↑↓)",[9],↑
same,"Phospholipidosis, MEC",[9],<0.0977 µM
same,"Phospholipidosis, Trend (↑↓)",[9],↑
same,"Steatosis, Trend (↑↓)",[9],↑
same,"Steatosis, MEC",[9],0.822 (NS) μM
same,AC50,[10]; [16],> 3.13 µM
same,AC50,"[10]; read-out: Cell count, AC50",2.48 µM
same,AC50,"[10]; read-out: DNA structure, AC50",6.23 µM
same,AC50,"[10]; read-out: Nuclear size, AC50",> 3.13 µM
same,AC50,[10]; [17],0.351 µM
Nc1ccc(S(=O)(=O)Nc2ccnn2-c2ccccc2)cc1 [Sulfaphenazole],"activity at 20 min, 3 µM",[11],94.8 ± 7.2%
same,"activity at 20 min, 3 µM",[1],100 ± 5.8%
same,"activity at 20 min, 3 µM",[2],97.6 ± 19.2%
same,"activity at 20 min, 3 µM",[3],102 ± 6.5%
same,"activity at 20 min, 3 µM",[4]; microsomes,23.6 ± 3.3%
same,"activity at 20 min, 3 µM",[5],98.1 ± 10.8%
same,"activity at 20 min, 3 µM",[12]; CYP activity (% of Control) 3A4 (Midazolam),98.7 ± 5.2%
same,"activity at 20 min, 3 µM",[12]; CYP activity (% of Control) 3A4 (Testosterone),95.9 ± 4.3%
CC/C(=C(\c1ccccc1)c1ccc(OCCN(C)C)cc1)c1ccccc1 [Tamoxifen],"Cell count, MEC",[9],0.360 µM
same,"Cell count, Trend (↑↓)",[9],↑
same,"DNA structure, MEC",[9],2.57 µM
same,"DNA structure, Trend (↑↓)",[9],↑
same,"Nuclear size, MEC",[9],0.672 µM
same,"Nuclear size, Trend (↑↓)",[9],↓
same,"Phospholipidosis, MEC",[9],0.447 µM
same,"Steatosis, Trend (↑↓)",[9],↑
same,"Steatosis, MEC",[9],4.38 µM
same,AC50,[10]; [16],16.9 µM
same,AC50,"[10]; read-out: Cell count, AC50",0.442 µM
same,AC50,"[10]; read-out: DNA structure, AC50",6.3 µM
same,AC50,"[10]; read-out: Nuclear size, AC50",3.05 µM
same,AC50,[10]; [17],0.764 µM
same,"Hepatocyte Viability, MTT Assay Upfront (Mean)",[13]; 50 µM,4
same,"Hepatocyte Viability, Concurrent MTT Assay (Mean)","[13]; Lot 336, 50 µM",2
same,"Hepatocyte Viability, Concurrent MTT Assay (Mean)","[13]; Lot 348B, 50 µM",1
same,"Hepatocyte Viability, Concurrent MTT Assay (Mean)","[13]; Lot 399, 50 µM",7
COc1cc2c(cc1OC)CN(CCc1ccc(NC(=O)c3cccc4c(=O)c5cccc(OC)c5[nH]c34)cc1)CC2 [elacridar],inhibition at 3 μM,[14],98.4 ± 0.53%
Nc1ccn([C@H]2CC[C@@H](CO)O2)c(=O)n1 [zalcitabine],"OXPHOS 5 and total ATP levels, caspase 3 or ROS/RNS levels",[15]; 2-week,No significant decrease
same,decrease in OXPHOS 1,[15]; 2-week,~ 80%
same,decrease in OXPHOS 3,[15]; 2-week,~ 20%
same,decrease in OXPHOS 4,[15]; 2-week,~ 70%
same,increase in total glutathione content,[15]; two weeks,~ 35%
